Results: patent publication US8445489B2, “Aryl ether pyridazinone derivatives” (Merck Patent GmbH, priority 2007, dated 2013)

Tests used:
Met kinase = molecular target: T1, Met kinase (Homo sapiens, UniProt P08581); assay: Met kinase inhibition (enzyme assay), flashplate method; assay type: biochemical
T1 construct: 6His (N); purchased Upstate 14-526; host or cells: Sf21 insect cells (S. frugiperda), baculovirus
Source text: According to the manufacturer's data (Met, active, upstate, catalogue No. 14-526), Met kinase is expressed for the purposes of protein production in insect cells (Sf21; S. frugiperda) and subsequent affinity-chromatographic purification as “N-terminal 6His-tagged” recombinant human protein in a baculovirus expression vector.
The test plates used are 96-well Flashplate® microtitre plates from Perkin Elmer (Cat. No. SMP200). The components of the kinase reaction described below are pipetted into the assay plate. The Met kinase and the substrate poly Ala-Glu-Lys-Tyr, (pAGLT, 6:2:5:1), are incubated for 3 hrs at room temperature with radioactively labelled ^33P-ATP in the presence and absence of test substances in a total volume of 100 μl. The reaction is terminated using 150 μl of a 60 mM EDTA solution. After incubation for a further 30 min at room temperature, the supernatants are filtered off with suction, and the wells are washed three times with 200 μl of 0.9% NaCl solution each time. The measurement of the bound radioactivity is carried out by means of a scintillation measuring instrument (Topcount NXT, Perkin-Elmer).
The full value used is the inhibitor-free kinase reaction. This should be approximately in the range 6000-9000 cpm. The pharmacological zero value used is staurosporin in a final concentration of 0.1 mM. The inhibitory values (IC50) are determined using the RS1_MTS program.
Kinase Reaction Conditions Per Well:
10 μl of substance to be tested in assay buffer with 10% of DMSO
10 μl of ATP (final concentration 1 μM cold, 0.35 μCi of ^33P-ATP)
50 μl of Met kinase/substrate mixture in assay buffer;
• (10 ng of enzyme/well, 50 ng of pAGLT/well)
50 mM HEPES • 3 mM magnesium chloride • 3 μM sodium orthovanadate • 3 mM manganese(II) chloride • 1 mM dithiothreitol (DTT) pH=7.5 (to be set using sodium hydroxide)
60 mM Titriplex III (EDTA) • ^33P-ATP: Perkin-Elmer; • Met kinase: Upstate, Cat. No. 14-526, Stock 1 μg/10 μl; spec. activity 954 U/mg; • Poly-Ala-Glu-Lys-Tyr, 6:2:5:1: Sigma Cat. No. P1152 In-Vivo Tests (FIG. 1/1) Experimental Procedure: […]

TPR-Met/NIH3T3 cells = assay: In-vivo test, TPR-Met/NIH3T3 tumour model in mice; details: 200 mg/kg daily by gastric tube, 9 days; tumour volume; female Balb/C mice, s.c. TPR-Met/NIH3T3 cells
Method: Female Balb/C mice (breeder: Charles River Wiga) were 5 weeks old on arrival. They were acclimatised to our keeping conditions for 7 days. Each mouse was subsequently injected subcutaneously in the pelvic area with 4 million TPR-Met/NIH3T3 cells in 100 μl of PBS (without Ca++ and Mg++). […] 100 μl of vehicle (0.25% methylcellulose/100 mM acetate buffer, pH 5.5) were administered daily to the control group, and 200 mg/kg of “A56” or “A91” dissolved in the vehicle (volume likewise 100 μl/animal) were administered daily to the treatment groups, in each case by gastric tube.
The length (L) and breadth (B) were measured using a Vernier calliper, and the tumour volume was calculated from the formula L×B×B/2.
4 or 5 animals per cage, feeding with commercial mouse food (Sniff).

T1 sequence (P08581 956-1390 limits assumed): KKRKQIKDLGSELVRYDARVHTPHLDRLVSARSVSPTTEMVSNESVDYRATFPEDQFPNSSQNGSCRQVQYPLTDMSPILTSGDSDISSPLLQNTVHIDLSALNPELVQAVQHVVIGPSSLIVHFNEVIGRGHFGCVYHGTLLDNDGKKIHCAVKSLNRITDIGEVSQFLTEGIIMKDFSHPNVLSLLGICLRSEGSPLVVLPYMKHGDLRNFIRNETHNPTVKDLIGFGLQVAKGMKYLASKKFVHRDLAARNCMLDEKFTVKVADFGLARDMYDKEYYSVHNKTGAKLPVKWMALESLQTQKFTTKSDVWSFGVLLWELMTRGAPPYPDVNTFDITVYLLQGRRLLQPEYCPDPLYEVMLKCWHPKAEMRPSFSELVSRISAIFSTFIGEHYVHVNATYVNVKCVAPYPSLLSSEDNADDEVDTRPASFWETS

| IC50 (Met kinase) [nM] | Structure (SMILES) | antitumoural action (TPR-Met/NIH3T3 cells) |
| --- | --- | --- |
| 10 to 1000 | CCOC(=O)Nc1cccc(Cn2nc(-c3ccc(OCCCCNC(=O)OC(C)(C)C)cc3)ccc2=O)c1 [Compound A12] | – |
| 10 to 1000 | CCOC(=O)Nc1cccc(Cn2nc(-c3cccc(OCCCCN)c3)ccc2=O)c1 [Compound A49] | – |
| 10 to 1000 | CCOC(=O)Nc1cccc(Cn2nc(-c3cc(F)c(OCCCN(C)C)c(F)c3)ccc2=O)c1 [Compound A27] | – |
| 10 to 1000 | CCOC(=O)Nc1cccc(Cn2nc(-c3cccc(OCCNC(=O)OC(C)(C)C)c3)ccc2=O)c1 [Compound A26] | – |
| 10 to 1000 | CCOC(=O)Nc1cccc(Cn2nc(-c3ccc(OCCCCCNC(=O)OC(C)(C)C)cc3)ccc2=O)c1 [Compound A4] | – |
| 10 to 1000 | CCOC(=O)Nc1cccc(Cn2nc(-c3cccc(OCCN4CCOCC4)c3)ccc2=O)c1 [Compound A24] | – |
| 10 to 1000 | CCOC(=O)Nc1cccc(Cn2nc(-c3cc(F)c(OCCCN4CCOCC4=O)c(F)c3)ccc2=O)c1 [Compound A28] | – |
| 10 to 1000 | CCOC(=O)Nc1cccc(Cn2nc(-c3ccc(OCCN(C(C)C)C(C)C)cc3)ccc2=O)c1 [Compound A13] | – |
| 10 to 1000 | CCOC(=O)Nc1cccc(Cn2nc(-c3cccc(OCCOC)c3)ccc2=O)c1 [Compound A21] | – |
| 10 to 1000 | CCOC(=O)Nc1cccc(Cn2nc(-c3ccc(OCCCOC)cc3)ccc2=O)c1 [Compound A11] | – |
| 10 to 1000 | CCOC(=O)Nc1cccc(Cn2nc(-c3cc(F)c(OCCCN)c(F)c3)ccc2=O)c1 [Compound A53] | – |
| 10 to 1000 | CCOC(=O)Nc1cccc(Cn2nc(-c3cc(F)c(OCCCCO)c(F)c3)ccc2=O)c1 [Compound A35] | – |
| 10 to 1000 | CCOC(=O)Nc1cccc(Cn2nc(-c3cccc(OCCCCOC)c3)ccc2=O)c1 [Compound A20] | – |
| 10 to 1000 | CCOC(=O)Nc1cccc(Cn2nc(-c3cc(F)c(OCCCCCNC(=O)OC(C)(C)C)c(F)c3)ccc2=O)c1 [Compound A31] | – |
| 10 to 1000 | CCOC(=O)Nc1cccc(Cn2nc(-c3ccc(OCC(C)CN4CCOCC4)cc3)ccc2=O)c1 (stereo not shown) [Compound A18] | – |
| 10 to 1000 | CCOC(=O)Nc1cccc(Cn2nc(-c3cc(F)c(OCCCN4CCCC4)c(F)c3)ccc2=O)c1 [Compound A43] | – |
| 10 to 1000 | CCOC(=O)Nc1cccc(Cn2nc(-c3ccc(OCCCCOC)cc3)ccc2=O)c1 [Compound A7] | – |
| 10 to 1000 | CCOC(=O)Nc1cccc(Cn2nc(-c3ccc(OCCCCCN)cc3)ccc2=O)c1 [Compound A44] | – |
| 10 to 1000 | CCOC(=O)Nc1cccc(Cn2nc(-c3ccc(OCCNC(=O)OC(C)(C)C)cc3)ccc2=O)c1 [Compound A6] | – |
| 10 to 1000 | CCOC(=O)Nc1cccc(Cn2nc(-c3cc(F)c(OCCOC)c(F)c3)ccc2=O)c1 [Compound A34] | – |
| 10 to 1000 | CCOC(=O)Nc1cccc(Cn2nc(-c3cc(F)c(OCCCCCN)c(F)c3)ccc2=O)c1 [Compound A52] | – |
| 10 to 1000 | CCOC(=O)Nc1cccc(Cn2nc(-c3ccc(OC4CCCN(CC)C4)cc3)ccc2=O)c1 (stereo not shown) [Compound A15] | – |
| 10 to 1000 | CCOC(=O)Nc1cccc(Cn2nc(-c3ccc(OCCO)cc3)ccc2=O)c1 [Compound A9] | – |

| IC50 (Met kinase) [nM] | Structure (SMILES) | antitumoural action (TPR-Met/NIH3T3 cells) |
| --- | --- | --- |
| 10 to 1000 | CCOC(=O)Nc1cccc(Cn2nc(-c3ccc(OCCCCN)cc3)ccc2=O)c1 [Compound A50] | – |
| 10 to 1000 | CCOC(=O)Nc1cccc(Cn2nc(-c3ccc(OCCN4CCOCC4)cc3)ccc2=O)c1 [Compound A1] | – |
| 10 to 1000 | CCOC(=O)Nc1cccc(Cn2nc(-c3cccc(OCCCCNC(=O)OC(C)(C)C)c3)ccc2=O)c1 [Compound A23] | – |
| 10 to 1000 | CCOC(=O)Nc1cccc(Cn2nc(-c3ccc(OCCCN4CCCCC4)cc3)ccc2=O)c1 [Compound A16] | – |
| 10 to 1000 | CCOC(=O)Nc1cccc(Cn2nc(-c3ccc(OCCCCO)cc3)ccc2=O)c1 [Compound A10] | – |
| 10 to 1000 | CCOC(=O)Nc1cccc(Cn2nc(-c3cc(F)c(OCCN(C)C)c(F)c3)ccc2=O)c1 [Compound A33] | – |
| 10 to 1000 | CN1CCN(CCCOc2c(F)cc(-c3ccc(=O)n(Cc4ccc5[nH]c(=O)[nH]c5c4)n3)cc2F)CC1 [Compound A56, 5-(3-{3,5-difluoro-4-[3-(4-methylpiperazin-1-yl)propoxy]-phenyl}-6-oxo-6H-pyridazin-1-ylmethyl)-1,3-dihydrobenzimidazol-2-one] | significant antitumoural action |
| 10 to 1000 | CCOC(=O)Nc1cccc(Cn2nc(-c3cccc(OCCCO)c3)ccc2=O)c1 [Compound A19] | – |
| 10 to 1000 | CCOC(=O)Nc1cccc(Cn2nc(-c3cccc(OCCCCO)c3)ccc2=O)c1 [Compound A22] | – |
| 10 to 1000 | CCOC(=O)Nc1cccc(Cn2nc(-c3ccc(OCCN)cc3)ccc2=O)c1 [Compound A48] | – |
| 10 to 1000 | CCOC(=O)Nc1cccc(Cn2nc(-c3ccc(OCCC4CCCN4C)cc3)ccc2=O)c1 (stereo not shown) [Compound A17] | – |
| 10 to 1000 | CCOC(=O)Nc1cccc(Cn2nc(-c3ccc(OCCN(C)C)cc3)ccc2=O)c1 [Compound A8] | – |
| 10 to 1000 | CCOC(=O)Nc1cccc(Cn2nc(-c3cc(F)c(OCCN)c(F)c3)ccc2=O)c1 [Compound A45] | – |
| 10 to 1000 | CCOC(=O)Nc1cccc(Cn2nc(-c3cc(F)c(OCCCO)c(F)c3)ccc2=O)c1 [Compound A38] | – |
| 10 to 1000 | CCOC(=O)Nc1cccc(Cn2nc(-c3cc(F)c(OCCCNC)c(F)c3)ccc2=O)c1 [Compound A29a] | – |
| 10 to 1000 | CN(C)CCCOc1c(F)cc(-c2ccc(=O)n(Cc3ccc4[nH]c(=O)[nH]c4c3)n2)cc1F [Compound A55, 5-{3-[4-(3-dimethylaminopropoxy)-3,5-difluorophenyl]-6-oxo-6H-pyridazin-1-ylmethyl}-1,3-dihydrobenzimidazol-2-one] | – |
| 10 to 1000 | CCOC(=O)Nc1cccc(Cn2nc(-c3ccc(OCCCN(C)C)cc3)ccc2=O)c1 [Compound A3] | – |
| 10 to 1000 | CCOC(=O)Nc1cccc(Cn2nc(-c3ccc(OCC(=O)N(C)C)cc3)ccc2=O)c1 [Compound A14] | – |
| 10 to 1000 | CCOC(=O)Nc1cccc(Cn2nc(-c3ccc(OCCOC)cc3)ccc2=O)c1 [Compound A5] | – |
| 10 to 1000 | CCOC(=O)Nc1cccc(Cn2nc(-c3cccc(OCCCOC)c3)ccc2=O)c1 [Compound A25] | – |
| 10 to 1000 | CCOC(=O)Nc1cccc(Cn2nc(-c3ccc(OCCCO)cc3)ccc2=O)c1 [Compound A2] | – |
| 10 to 1000 | CCOC(=O)Nc1cccc(Cn2nc(-c3cc(F)c(OCCCOC)c(F)c3)ccc2=O)c1 [Compound A37] | – |
